Test results as given in patent publication US7179943B2, “Bicyclic derivatives that modulate voltage-gated potassium channels and methods of use thereof” (Wyeth, priority 2004, dated 2007).

Tests used:
[1] = target: T1, human Kv1.1/Kvβ1 potassium ion channel complex (Homo sapiens, UniProt Q09470); test: Xenopus oocytes current assay (inhibition of inactivation, voltage clamp); assay type: cell-based; details: Xenopus oocytes expressing hKv1.1/hKvβ1, relative to control bath solution, read-out: Percent Increase in Steady State Current Of human Kv1.1/Kvβ1 @ a concentration of 50 μM
T1 construct: expressed in transfected cells; host or cells: Xenopus oocytes injected with cRNA
T1 sequence (Q09470 whole entry, one chain of several): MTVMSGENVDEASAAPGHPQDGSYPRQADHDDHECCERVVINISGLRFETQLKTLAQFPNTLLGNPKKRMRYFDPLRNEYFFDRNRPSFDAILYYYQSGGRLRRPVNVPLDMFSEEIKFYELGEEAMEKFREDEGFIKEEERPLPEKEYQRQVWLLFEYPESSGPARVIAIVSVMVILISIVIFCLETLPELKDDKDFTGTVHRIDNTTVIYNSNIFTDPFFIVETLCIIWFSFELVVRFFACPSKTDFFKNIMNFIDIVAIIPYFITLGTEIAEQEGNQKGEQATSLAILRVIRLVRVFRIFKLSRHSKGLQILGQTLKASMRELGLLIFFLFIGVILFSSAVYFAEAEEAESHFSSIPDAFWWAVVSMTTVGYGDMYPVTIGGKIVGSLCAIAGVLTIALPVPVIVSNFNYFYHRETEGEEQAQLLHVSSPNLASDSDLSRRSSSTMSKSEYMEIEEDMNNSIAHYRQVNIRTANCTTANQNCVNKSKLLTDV
Procedure: The compounds of formula I were examined for their ability to inhibit the inactivation of the human Kv1.1/Kvβ1 potassium ion channel complex in vitro using electrophysiological current recordings on inactivating Kv1.1/Kvβ1 channels expressed in Xenopus oocytes. Xenopus oocytes were harvested from frogs under general anesthesia using aseptic techniques. Oocytes were treated with 2 mg/ml collagenase for 1–1.5 hr, defolliculated, and injected with 40 nL cRNA (a mixture of hky1.1 and hKvβ1) produced using standard molecular biological techniques (Sambrook, et al., 1989, Molecular Cloning: A Laboratory Manual). The concentration of hKv1.1/hKvp1 cRNA varies, but was generally about 50 ng/μL hKv1.1 and […] hKβ1.
Currents were recorded using standard voltage clamp amplifiers at room temperature. Recordings were performed in the bath solution “ND-96” containing 96 mM NaCl, 2 mM KCl, 1 mm CaCl2, 1 mM MgCl2, 10 mM HEPES and […] Gentamycin (pH=7.6). The pipette (electrode) solution generally consisted of […]. Electrodes were made from WPI TW150F-4 borosilicate glass (or equivalent) and typically had resistances of 0.5–1.5 Mohms. The standard current-voltage (IV) pulse protocol consisted of voltage steps from −60 mV to +50 mV, in 10 mV increments for 200 ms, at a frequency of one IV set per 2 minutes. Data were digitized and analyzed by standard software packages.
Solutions of the test compounds consisting of test compounds dissolved in bath solution were applied by bath perfusion using gravity or pump-driven flow. A minimum of 2 mL (10 times the bath volume) over 3 minutes were flowed for each compound concentration tested. Data were averaged across at least 3 cells tested for each concentration.
Test compounds were examined for their ability to inhibit the inactivation of the steady state portion of the IV curve.

mouse Elevated Zero Maze = test: Anxiolytic activity: mouse Elevated Zero Maze model; assay type: in vivo; details: 30 min prior to testing, mice; for % Total Distance Traveled (Relative to Control): 3 mg/kg ip.
Procedure: Anxiolytic activity of the compounds of formula I was determined using the mouse Elevated Zero Maze model, originally described by Shepherd, et al. (Psychopharmocol. (1994) 116:56–64), incorporated herein by reference in its entirety. Anxiolytic efficacy was measured as the ability of the test compound to increase the amount of time that the mice spent in the open zones of the maze. To account for the possibility of false positive results due to increased locomotor activity, total distance traveled during the course of the experiment was also monitored.
The zero maze, constructed of black Perspex, consisted of a circle (outer diameter approximately 60 cm, width 5 cm) that was elevated 55 cm above the floor. The zero maze was divided into 4 equal quadrants, alternating between open and closed. […] Animals were tested under low levels of illumination in the presence of red light. Test animals (male CN57BI/n mice) were group housed with ad lib access to food and water. On the day of testing, animals were brought into the behavioral testing room and allowed to habituate for a period of not less than one-half hour. Test compounds were administered at the appropriate dose ip. 30 min prior to testing on the zero maze. Control animals were administered the test vehicle. Animals were placed on the zero maze with their head and forepaws contained within a closed quadrant. The animals' behavior was then recorded for 4 minutes and the distance traveled, the amount of time spent in, and number of entries into, each quadrant was noted. Behavior was monitored utilizing an automated video tracking system. Results for the test compounds are presented here as the percentage relative to that obtained with the control animals.

Compound | activation at 50 µM [1] [%] | melting point [°C] | % Time Spent in Open Zones (Relative to Control) (mouse Elevated Zero Maze; 60 mg/kg ip.) [%] | % Total Distance Traveled (Relative to Control) (mouse Elevated Zero Maze) [%] | % Total Distance Traveled (Relative to Control) (mouse Elevated Zero Maze; listed as diazepam)
CC1(C)C2CC[C@]1(C)C(=O)C(C(=O)Nc1cccc(C(F)(F)F)c1)C2=O (stereo partly drawn) [Example 2, (1S)-N-[3-(trifluoromethyl)phenyl]-1,8,8-trimethyl-2,4-dioxobicyclo[3.2.1] octane-3-carboxamide] | 22 | 60 to 62 | 140 | – | –
CN(C)c1ccc(NC(=O)C2C(=O)C3CC[C@](C)(C2=O)C3(C)C)cc1 (stereo partly drawn) [Example 9, (1S)-N-[4-(dimethylamino)phenyl]-1,8,8-trimethyl-2,4-dioxobicyclo[3.2.1] octane-3-carboxamide] | 27 | 93 to 95 | – | – | –
CC1(C)C2CC[C@@]1(C)C(=O)C(C(=O)Nc1cc(Cl)cc(Cl)c1)C2=O (stereo partly drawn) [Example 13, (1R)-N-(3,5-dichlorophenyl)-1,8,8-trimethyl-2,4-dioxobicyclo[3.2.1]octane-3-carboxamide] | 19 | 115 to 117 | – | – | –
O=C(Nc1ccc(Cl)c(C(F)(F)F)c1)C1C(=O)C2CCC(C2)C1=O (stereo not shown) [Example 25, N-[4-chloro-3-(trifluoromethyl)phenyl]-2,4-dioxobicyclo[3.2.1]octane-3-carboxamide] | 47 | 136 to 137 | – | – | –
CC1(C)C2CC[C@@]1(C)C(=O)C(C(=O)Nc1ccc([N+](=O)[O-])cc1)C2=O (stereo partly drawn) [Example 15, (1R)-N-(4-nitrophenyl)-1,8,8-trimethyl-2,4-dioxobicyclo[3.2.1]octane-3-carboxamide] | 75 | 168 to 170 | – | – | –
CN1C(=O)CN=C(c2ccccc2)c2cc(Cl)ccc21 [Diazepam, reference compound] | – | – | – | 75 | small decrease
CC1(C)C2CC[C@@]1(C)C(=O)C(C(=O)Nc1ccc(Cl)c(C(F)(F)F)c1)C2=O (stereo partly drawn) [Example 16, (1R)-N-[4-chloro-3-(trifluoromethyl)phenyl]-1,8,8-trimethyl-2,4-dioxobicyclo [3.2.1]octane-3-carboxamide] | 45 | 117 to 119 | – | – | –
CC1(C)C2CC[C@@]1(C)C(=O)C(C(=O)Nc1ccc(F)c(Cl)c1)C2=O (stereo partly drawn) [Example 20, (1R)-N-[3-chloro-4-fluorophenyl]-1,8,8-trimethyl-2,4-dioxobicyclo[3.2.1] octane-3-carboxamide] | 267 | 89 to 91 | – | – | –
CC1(C)C2CC[C@]1(C)C(=O)C(C(=O)Nc1cc(C(F)(F)F)cc(C(F)(F)F)c1)C2=O (stereo partly drawn) [Example 1, (1S)-N-[3,5-bis(trifluoromethyl)phenyl]-1,8,8-trimethyl-2,4-dioxobicyclo[3.2.1] octane-3-carboxamide] | 16 | 68 to 72 | – | – | –
CC1(C)C2CC[C@]1(C)C(=O)C(C(=O)Nc1ccc(Cl)c(Cl)c1)C2=O (stereo partly drawn) [Example 4, (1S)-N-(3,4-dichlorophenyl)-1,8,8-trimethyl-2,4-dioxobicyclo[3.2.1]octane-3-carboxamide] | 11 | 88 to 90 | – | – | –
CC1(C)C2CC[C@]1(C)C(=O)C(C(=O)Nc1ccc(F)c(Cl)c1)C2=O (stereo partly drawn) [Example 10, (1S)-N-[3-chloro-4-fluorophenyl]-1,8,8-trimethyl-2,4-dioxobicyclo[3.2.1] octane-3-carboxamide] | 137 | 87 to 89 | – | – | –
CC1(C)C2CC[C@@]1(C)C(=O)C(C(=O)Nc1ccc(F)c(C(F)(F)F)c1)C2=O (stereo partly drawn) [Example 21, (1R)-N-[3(trifluoromethyl)-4-fluorophenyl]-1,8,8-trimethyl-2,4-dioxobicyclo [3.2.1]octane-3-carboxamide] | 229 | 96 to 98 | – | – | –
O=C(Nc1cc(C(F)(F)F)cc(C(F)(F)F)c1)C1C(=O)C2CCC(C2)C1=O (stereo not shown) [Example 23, N-[3,5-bis(trifluoromethyl)phenyl]-2,4-dioxobicyclo[3.2.1]octane-3-carboxamide] | 137 | 88 to 90 | – | – | –
O=C(Nc1cccc(C(F)(F)F)c1)C1C(=O)C2CCC(C2)C1=O (stereo not shown) [Example 22, N-[3-(trifluoromethyl)phenyl]-2,4-dioxobicyclo[3.2.1]octane-3-carboxamide] | 41 | 68 to 69 | – | – | –
O=C(Nc1ccc(F)c(C(F)(F)F)c1)C1C(=O)C2CCC(C2)C1=O (stereo not shown) [Example 27, N-[4-fluoro-3-(trifluoromethyl)phenyl]-2,4-dioxobicyclo[3.2.1]octane-3-carboxamide] | 43 | 97 to 100 | – | – | –
